{"source": "patent US20190365719A1", "about": "“COMBINATION TREATMENTS OF HSP90 INHIBITORS FOR ENHANCING TUMOR IMMUNOGENICITY AND METHODS OF USE THEREOF” (Massachusetts Institute of Technology, priority 2018, published 2019)", "key": {"[1]": {"molecular_target": "HSP90", "conditions": "cited from earlier work"}, "[2]": {"conditions": "cited from earlier work"}, "[3]": {"system": "HSP90", "conditions": "cited from earlier work", "remark": "listed apart in the source"}, "[4]": {"system": "M229R and 1205LuR xenografts", "conditions": "cited from earlier work"}, "[5]": {"system": "HSP90", "conditions": "cited from earlier work", "remark": "listed apart in the source"}, "[6]": {"system": "refractory neuroendocrine tumors (NET)s", "conditions": "42-100 mg/m2 every other day; cited from earlier work"}, "[7]": {"system": "MC38 cells", "experiment": "Flow cytometry of MHC Class I H2-Kb surface expression on MC38 cells", "type": "cell-based, mouse", "method": "(§1) For analysis of MHC Class I surface expression, cells were seeded into 12 well plates (125,000/well). 24-hours later, cells were treated with the indicated concentrations of HSP90i (NVP-HSP990) or DMSO vehicle. 72-hours after treatment, cells were dissociated with Accumax (Innovative Cell Technologies) and each treatment condition was distributed into 2 wells of a 96 well plate. […] After incubation with antibody, cells were washed 1× in ice cold PBS+10% FBS prior to analysis on a MACSQuant VYB flow cytometer. Cytometric data were plotted and analyzed with FloJo.\nas §1, with “LSR-2” for “MACSQuant VYB”"}, "[8]": {"molecular_target": "HSP90", "conditions": "binding to HSP90, same site; cited from earlier work"}, "[9]": {"conditions": "mono-therapy, cited from earlier work"}, "[10]": {"system": "A375 cells", "conditions": "cited from earlier work"}, "[11]": {"conditions": "cited from earlier work", "remark": "listed apart in the source"}, "[12]": {"system": "human HSP90", "conditions": "cited from earlier work"}, "[13]": {"system": "TCL1-SCID transplant", "conditions": "10 mg/kg for 16 days; cited from earlier work"}, "[14]": {"conditions": "relative to 17-AAG; cited from earlier work"}, "[15]": {"system": "TMK-1 xenografts", "conditions": "5 mg/kg or 25 mg/kg thrice per week; cited from earlier work"}, "[16]": {"system": "tumor growth", "conditions": "25 mg/kg three times a week; cited from earlier work"}, "[17]": {"system": "A375 and A2780 xenografts", "conditions": "60 mg/kg i.v.; cited from earlier work"}, "[18]": {"conditions": "10 mg/kg i.v., test animals; cited from earlier work"}, "[19]": {"system": "MC38 cells", "experiment": "Immunoblot analysis of MC38 cells", "type": "cell-based, mouse", "conditions": "Hsp90i 60 nM or IFN-γ 10 ng/mL", "method": "Protein extraction was performed by washing cells 2× with PBS. A volume of lysis buffer (50 mM Tris pH 7.5, 150 mM NaCl, 1 mM EDTA, 1% Triton-X100, 0.1% SDS, 1× Halt Protease/Phosphatase inhibitor) equal to 1/10 the culture media volume was added directly to the culture dish and incubated for 2-3 min on ice. Lysates were then thoroughly scraped and pipetted into 1.5 mL tubes and incubated for an additional 30 min on ice. Lysates were then cleared by centrifugation at 14,000×g for 15 min and quantified using BCA Assay. Lysates were separated by SDS-PAGE and transferred to 0.2 μm nitrocellulose membranes prior to washing with PBST, blocking with 5% milk in PBST, and incubation with primary antibody overnight at 4° C. All primary antibodies were diluted 1:1000 in 2.5% milk in PBST. Membranes were then washed 4×5 min with PBST and incubated with HRP conjugated secondary antibody at a 1:10,000 dilution in 2.5% milk in PBST, and washed again 4×5 min with PBST. Detection of secondary antibody was performed with SuperSignal West Pico or Femto ECL reagents (Pierce) and digitally imaged on a ChemiDoc (BioRad).\nImmunoblotting was performed as described in Example 4. Briefly, protein extraction was performed by washing cells with PBS and then isolating whole cell lysates in lysis buffer (50 mM Tris pH 7.5, 150 mM NaCl, 1 mM EDTA, 1% Triton-X100, 0.1% SDS, 1× Halt Protease/Phosphatase inhibitor) Lysates were then cleared by centrifugation and quantified using BCA Assay. Lysates were separated by SDS-PAGE and transferred to 0.2 μm nitrocellulose membranes prior to washing with PBST, blocking with 5% milk in PBST, and incubation with primary antibody overnight at 4° C. All primary antibodies were diluted 1:1000 in 2.5% milk in PBST. Membranes were then washed and incubated with HRP conjugated secondary antibody. Detection of secondary antibody was performed with SuperSignal West Pico or Femto ECL reagents (Pierce) and digitally imaged on a ChemiDoc (BioRad)."}}, "note": "Read-outs that look alike come from different tables or passages of the source.", "data": [{"molecule": "COc1c(C)cnc(Cn2cnc3c(Cl)nc(N)nc32)c1C", "note": "[BIIB021]", "values": [{"measurement": "Ki", "setting": "[1]", "value": "[…]"}, {"measurement": "MTD", "setting": "[2]; twice-weekly oral dosing schedule", "value": 800, "unit": "mg"}, {"measurement": "EC50", "setting": "[3]", "value": "[…]"}]}, {"molecule": "CC[C@@H](C)Nc1cc(C(=O)NC2CC3CCC(C2)N3c2ccc(C(=O)C3CC3)cn2)c(C)cc1C(N)=O", "note": "(stereo partly drawn) [XL888]", "values": [{"measurement": "growth inhibition of established xenografts", "setting": "[4]; 100 mg/kg, SCID mice", "value": 50, "unit": "%"}, {"measurement": "increase in intratumoral HSP70 expression compared with controls", "setting": "[4]; 15 days of treatment", "value": 8.6, "unit": "fold"}]}, {"molecule": "CC(C)NCCCn1c(Sc2cc3c(cc2I)OCO3)nc2c(N)ncnc21", "note": "[PU-H71]", "values": [{"measurement": "MTD", "setting": "[2]; intravenous (iv) infusion", "value": "350-400 mg/m2"}, {"measurement": "IC50", "setting": "[5]", "value": "[…]"}]}, {"molecule": "CC1(C)CC(=O)c2c(C(F)(F)F)nn(-c3ccc(C(N)=O)c(N[C@H]4CC[C@H](OC(=O)CN)CC4)c3)c2C1", "note": "[SNX-5422]", "values": [{"measurement": "MTD", "setting": "[2]; oral, pancreatic NETs and nonfunctional gastrointestinal and pulmonary NETs", "value": 75, "unit": "mg/m^2"}, {"measurement": "patients achieving stable disease for >8 cycles", "setting": "[6]", "value": "2 of 3"}]}, {"molecule": "COc1ccc(C[C@H](NC(=O)[C@H](C)NC(=O)CN2CCOCC2)C(=O)N[C@@H](Cc2ccccc2)C(=O)C2(C)CO2)cc1", "note": "(stereo in doubt) [ONX-0914]", "values": [{"measurement": "effect on HSP90i-caused increase in MHC Class I surface expression", "setting": "[7]; ONX-0914 500 nM with low level HSP90i", "value": "abrogated the increase in MHC Class I surface expression"}]}, {"molecule": "CC(C)c1cc(C(=O)N2Cc3ccc(CN4CCN(C)CC4)cc3C2)c(O)cc1O", "note": "[AT13387]", "values": [{"measurement": "Kd", "setting": "[8]", "value": 0.7, "unit": "nM"}, {"measurement": "RP2D", "setting": "[2]; six doses in a four-week schedule (day 1, 2, 8, 9, 15, 16)", "value": 160, "unit": "mg/m2"}, {"measurement": "R2PD", "setting": "[2]; twice weekly for 3 weeks in a 4-week regimen, diarrhea, nausea, vomiting, fatigue, systemic infusion reactions", "value": 260, "unit": "mg/m2"}, {"measurement": "MTD", "setting": "[2]; twice weekly for 3 weeks in a 4-week regimen, visual disturbances", "value": 120, "unit": "mg/m2"}, {"measurement": "tolerated dose", "setting": "[9]; once weekly", "value": "≤ 90", "unit": "mg/kg"}, {"measurement": "tolerated dose", "setting": "[9]; twice weekly", "value": "up to 70 mg/kg"}, {"measurement": "IC50", "setting": "[10]", "value": 18, "unit": "nM"}]}, {"molecule": "C=CCNc1c(O)cc2c(O)c1C[C@@H](C)C[C@H](OC)[C@H](O)[C@@H](C)/C=C(\\C)[C@@H](OC(N)=O)[C@H](OC)/C=C\\C=C(/C)C(=O)N2.Cl", "note": "[IPI-504]", "values": [{"measurement": "aqueous solubility", "setting": "[11]", "value": "> 200", "unit": "mg/mL"}, {"measurement": "maximum tolerated dose (MTD) and recommended phase II dose (RP2D)", "setting": "[2]; iv, in combination with docetaxel 75 mg/m^2 once every three weeks, phase Ib", "value": 450, "unit": "mg/m^2"}, {"measurement": "MTD from phase 1 trial", "setting": "[2]; monotherapy, intravenous infusion over 30 minutes", "value": 225, "unit": "mg/m^2"}, {"measurement": "on-treatment deaths, considered drug-related", "setting": "[2]; phase III trial, metastatic and/or unresectable GIST", "value": "four"}]}, {"molecule": "C=CCNC1=C2C[C@@H](C)C[C@H](OC)[C@H](O)[C@@H](C)/C=C(\\C)[C@H](OC(N)=O)[C@@H](OC)/C=C\\C=C(/C)C(=O)NC(=CC1=O)C2=O", "note": "[17-AAG, 17-Allylamino-17-demethoxy-geldanamycin]", "values": [{"measurement": "water solubility (in words)", "setting": "[11]", "value": "not water-soluble"}, {"measurement": "maximum tolerated dose (MTD)", "setting": "[2]; IV over 60 minutes on days 1, 4, 8 and 11 of each 21 day cycle", "value": 150, "unit": "mg/m^2"}]}, {"molecule": "CO[C@H]1/C=C\\C=C(/C)C(=O)NC2=CC(=O)C(NCCN(C)C)=C(C[C@@H](C)C[C@H](OC)[C@H](O)[C@@H](C)/C=C(\\C)[C@@H]1OC(N)=O)C2=O.Cl", "note": "[17-DMAG, 17-dimethylaminoethylamino-17-demethoxy-geldanamycin]", "values": [{"measurement": "IC50", "setting": "[12]; cell-free assay", "value": 62, "unit": "nM"}, {"measurement": "potency against human HSP90 as compared with 17-AAG", "setting": "[12]", "value": "~2", "unit": "times"}, {"measurement": "survival", "setting": "[13]", "value": "prolongs the survival"}, {"measurement": "white blood cell count", "setting": "[13]", "value": "significantly decreases the white blood cell count"}, {"measurement": "plasma half-life, oral bioavailability, metabolism", "setting": "[14]", "value": "longer plasma half-life, greater oral bioavailability, and less extensive metabolism"}, {"measurement": "tumor growth of TMK-1 xenografts", "setting": "[15]", "value": "significantly reduces tumor growth"}, {"measurement": "tumor growth in mice", "setting": "[16]", "value": "significantly suppresses tumor growth"}]}, {"molecule": "CN1CCC(NC(=O)c2cc(-c3c(O)cc(O)cc3Oc3ccc([N+](=O)[O-])cc3)on2)CC1", "note": "[NMS-E973]", "values": [{"measurement": "antitumor efficacy", "setting": "[17]", "value": "high antitumor efficacy"}, {"measurement": "blood-brain barrier penetration", "setting": "[18]", "value": "ability to cross the blood-brain barrier"}, {"measurement": "pharmacokinetic profile", "setting": "[18]", "value": "favorable pharmacokinetic profile"}]}, {"molecule": "CC1(C)CC(=O)c2c(C(F)(F)F)nn(-c3ccc(C(N)=O)c(N[C@H]4CC[C@H](O)CC4)c3)c2C1", "note": "[SNX-2112]", "values": [{"measurement": "MHC-I surface expression on MC38 cells", "setting": "[7]; 60 nM for each drug", "value": "induced MHC-I"}]}, {"molecule": "CCNC(=O)c1noc(-c2cc(C(C)C)c(O)cc2O)c1-c1ccc(CN2CCOCC2)cc1", "note": "[AUY922]", "values": [{"measurement": "maximum tolerated dose", "setting": "[2]; once weekly intravenous infusion", "value": 70, "unit": "mg/m^2"}]}, {"molecule": "IFN-γ: cytokine, canonical stimulus of antigen presentation, comparator at 10 ng/mL (protein, UniProt P01580 23-155, looked up) Interferon gamma: HGTVIESLESLNNYFNSSGIDVEEKSLFLDIWRNWQKDGDMKILQSQIISFYLRLFEVLKDNQAISNNISVIESHLITTFFSNSKAKKDAFMSIAKFEVNNPQVQRQAFNELIRVVHQLLPESSLRKRKRSRC", "values": [{"measurement": "expression of downstream markers of IFN-γ signaling (Stat1, Stat3, pStat3, PD-L1)", "setting": "[19]", "value": "induced expression of downstream markers of IFN-γ signaling"}]}]}
